Assay results reported in PMC7782499, “Progerinin, an optimized progerin-lamin A binding inhibitor, ameliorates premature senescence phenotypes of Hutchinson-Gilford progeria syndrome” (Communications Biology, 2021).

Test: Liver microsomal stability, rat
Assay type: in vitro ADME
Settings: liver microsomes, read-out: Liver microsomal stability (% remaining during 30min)
Description: For PK analysis, 5 mg/kg of JH4 in 10% DMSO, 5% […] solution were intravenously injected and 10 mg/kg of JH4 in 10% NMP and 90% PEG400 solution were orally delivered. At pre-set time-points, blood concentration of JH4 was determined by LC-MS/MS analysis[22],[23]. Other chemicals were also tested using similar protocol. In vitro ADME studies (plasma protein binding, CYP inhibition, microsomal stability, plasma stability, and hERG inhibition) were performed by New Drug Development Center (Daegu, Korea) using standard protocols[24],[25].

CC1(C)Oc2cc3oc(=O)ccc3cc2C[C@@H]1OC/C=C/c1ccccc1 [SLC-D011]
remaining at 0.5 h: 17.4%
